Experimental data as given in ChEMBL document CHEMBL4393697, “Lipophilic efficient phenylthiazoles with potent undecaprenyl pyrophosphatase inhibitory activity” (Eur J Med Chem, 2019).
In brackets after ≈: the same amount, converted by molar mass. Activity calls are given as the source filed them. The rule behind the calls is not given here.

Assays:
Listeria monocytogenes [1] = assay: Bactericidal activity against Listeria monocytogenes ATCC 19111 assessed as reduction in bacterial cell growth incubated for 18 to 20 hrs followed by re-plating on tryptic soy agar plates at 37 degC for 18 hrs by broth microdilution assay; format: functional
Staphylococcus aureus [2] = assay: Bactericidal activity against Staphylococcus aureus NRS107 assessed as reduction in bacterial cell growth incubated for 18 to 20 hrs followed by re-plating on tryptic soy agar plates at 37 degC for 18 hrs by broth microdilution assay; format: functional
Staphylococcus aureus [3] = assay: Antibacterial activity against methicillin resistant Staphylococcus aureus USA400 assessed as reduction in bacterial cell growth incubated for 18 to 20 hrs by broth microdilution method; format: functional
[4] = system: Staphylococcus epidermidis; assay: Bactericidal activity against methicillin resistant Staphylococcus epidermidis NRS101 assessed as reduction in bacterial cell growth incubated for 18 to 20 hrs followed by re-plating on tryptic soy agar plates at 37 degC for 18 hrs by broth microdilution assay; format: functional
[5] = Solubility of compound in PBS after 2 hrs by turbidity based absorbance analysis; format: physicochemical
Listeria monocytogenes [6] = assay: Antibacterial activity against Listeria monocytogenes ATCC 19111 assessed as reduction in bacterial cell growth incubated for 18 to 20 hrs by broth microdilution method; format: functional
Klebsiella pneumoniae [7] = assay: Bactericidal activity against Klebsiella pneumoniae BAA-1706 assessed as reduction in bacterial cell growth incubated for 18 to 20 hrs followed by re-plating on tryptic soy agar plates at 37 degC for 18 hrs by broth microdilution assay; format: functional
Enterococcus faecalis [8] = assay: Bactericidal activity against vancomycin resistant Enterococcus faecalis ATCC 51299 assessed as reduction in bacterial cell growth incubated for 18 to 20 hrs followed by re-plating on tryptic soy agar plates at 37 degC for 18 hrs by broth microdilution assay; format: functional
Enterococcus faecalis [9] = assay: Antibacterial activity against vancomycin resistant Enterococcus faecalis ATCC 51299 assessed as reduction in bacterial cell growth incubated for 18 to 20 hrs by broth microdilution method; format: functional
Klebsiella pneumoniae [10] = assay: Antibacterial activity against Klebsiella pneumoniae BAA-1706 assessed as reduction in bacterial cell growth incubated for 18 to 20 hrs by broth microdilution method; format: functional
Streptococcus pneumoniae [11] = assay: Bactericidal activity against Methicillin resistant Streptococcus pneumoniae ATCC 700677 assessed as reduction in bacterial cell growth incubated for 18 to 20 hrs followed by re-plating on tryptic soy agar plates at 37 degC for 18 hrs by broth microdilution assay; format: functional
Staphylococcus aureus [12] = assay: Bactericidal activity against methicillin-resistant Staphylococcus aureus USA300 assessed as reduction in bacterial cell growth incubated for 18 to 20 hrs followed by re-plating on tryptic soy agar plates at 37 degC for 18 hrs by broth microdilution assay; format: functional
Pseudomonas aeruginosa [13] = assay: Bactericidal activity against Pseudomonas aeruginosa ATCC 15442 assessed as reduction in bacterial cell growth incubated for 18 to 20 hrs followed by re-plating on tryptic soy agar plates at 37 degC for 18 hrs by broth microdilution assay; format: functional
Staphylococcus aureus [14] = assay: Antibacterial activity against methicillin resistant Staphylococcus aureus NRS119 assessed as reduction in bacterial cell growth incubated for 18 to 20 hrs by broth microdilution method; format: functional
Acinetobacter baumannii [15] = assay: Antibacterial activity against Acinetobacter baumannii ATCC 19606 assessed as reduction in bacterial cell growth incubated for 18 to 20 hrs by broth microdilution method; format: functional
Staphylococcus aureus [16] = assay: Antibacterial activity against Staphylococcus aureus ATCC 6538 assessed as reduction in bacterial cell growth incubated for 18 to 20 hrs by broth microdilution method; format: functional
Streptococcus pneumoniae [17] = assay: Antibacterial activity against Cephalosporin resistant Streptococcus pneumoniae ATCC 51916 assessed as reduction in bacterial cell growth incubated for 18 to 20 hrs by broth microdilution method; format: functional
Escherichia coli [18] = assay: Antibacterial activity against Escherichia coli BW25113 assessed as reduction in bacterial cell growth incubated for 18 to 20 hrs by broth microdilution method; format: functional
Staphylococcus aureus [19] = assay: Bactericidal activity against vancomycin resistant Staphylococcus aureus VRS10 assessed as reduction in bacterial cell growth incubated for 18 to 20 hrs followed by re-plating on tryptic soy agar plates at 37 degC for 18 hrs by broth microdilution assay; format: functional
Escherichia coli [20] = assay: Antibacterial activity against Escherichia coli JW55031 harboring deltatolC mutant assessed as reduction in bacterial cell growth incubated for 18 to 20 hrs by broth microdilution method; format: functional
Staphylococcus aureus [21] = assay: Bactericidal activity against vancomycin resistant Staphylococcus aureus VRS11a assessed as reduction in bacterial cell growth incubated for 18 to 20 hrs followed by re-plating on tryptic soy agar plates at 37 degC for 18 hrs by broth microdilution assay; format: functional
[22] = system: Staphylococcus epidermidis; assay: Antibacterial activity against methicillin resistant Staphylococcus epidermidis NRS101 assessed as reduction in bacterial cell growth incubated for 18 to 20 hrs by broth microdilution method; format: functional
Escherichia coli [23] = assay: Bactericidal activity against Escherichia coli JW55031 harboring deltatolC mutant assessed as reduction in bacterial cell growth incubated for 18 to 20 hrs followed by re-plating on tryptic soy agar plates at 37 degC for 18 hrs by broth microdilution assay; format: functional
Staphylococcus aureus [24] = assay: Antibacterial activity against vancomycin resistant Staphylococcus aureus VRS10 assessed as reduction in bacterial cell growth incubated for 18 to 20 hrs by broth microdilution method; format: functional
Acinetobacter baumannii [25] = assay: Bactericidal activity against Acinetobacter baumannii ATCC 19606 assessed as reduction in bacterial cell growth incubated for 18 to 20 hrs followed by re-plating on tryptic soy agar plates at 37 degC for 18 hrs by broth microdilution assay; format: functional
Streptococcus pneumoniae [26] = assay: Antibacterial activity against Methicillin resistant Streptococcus pneumoniae ATCC 700677 assessed as reduction in bacterial cell growth incubated for 18 to 20 hrs by broth microdilution method; format: functional
Pseudomonas aeruginosa [27] = assay: Antibacterial activity against Pseudomonas aeruginosa ATCC 15442 assessed as reduction in bacterial cell growth incubated for 18 to 20 hrs by broth microdilution method; format: functional
Escherichia coli [28] = assay: BActericidal activity against Escherichia coli BW25113 assessed as reduction in bacterial cell growth incubated for 18 to 20 hrs followed by re-plating on tryptic soy agar plates at 37 degC for 18 hrs by broth microdilution assay; format: functional
Staphylococcus aureus [29] = assay: Antibacterial activity against vancomycin resistant Staphylococcus aureus VRS11a assessed as reduction in bacterial cell growth incubated for 18 to 20 hrs by broth microdilution method; format: functional
Enterococcus faecium = assay: Bactericidal activity against vancomycin resistant Enterococcus faecium ATCC 700221 assessed as reduction in bacterial cell growth incubated for 18 to 20 hrs followed by re-plating on tryptic soy agar plates at 37 degC for 18 hrs by broth microdilution assay; format: functional
Staphylococcus aureus [30] = assay: Bactericidal activity against methicillin resistant Staphylococcus aureus NRS119 assessed as reduction in bacterial cell growth incubated for 18 to 20 hrs followed by re-plating on tryptic soy agar plates at 37 degC for 18 hrs by broth microdilution assay; format: functional
Staphylococcus aureus [31] = assay: Antibacterial activity against vancomycin resistant Staphylococcus aureus VRS12 assessed as reduction in bacterial cell growth incubated for 18 to 20 hrs by broth microdilution method; format: functional
Staphylococcus aureus [32] = assay: Antibacterial activity against methicillin-resistant Staphylococcus aureus USA300 assessed as reduction in bacterial cell growth incubated for 18 to 20 hrs by broth microdilution method; format: functional
Staphylococcus aureus [33] = assay: Antibacterial activity against intracellular methicillin resistant Staphylococcus aureus USA400 infected in mouse J774 cells assessed as log10 reduction of viable bacterial cells incubated for 24 hrs followed by re-plating on tryptic soy agar plates at 37 degC for 18 to 22 hrs by broth microdilution assay; format: functional

## C/C(=N\NC(=N)N)c1sc(-c2ccc(C#CC(C)(C)O)cc2)nc1C
Listeria monocytogenes [1]
  MBC: 8 mg/L (≈ 22.5 µM)
Staphylococcus aureus [2]
  MBC: 4 mg/L (≈ 11.3 µM)
Staphylococcus aureus [3]
  MIC: 2 mg/L (≈ 5.63 µM)
[4]
  MBC: 4 mg/L (≈ 11.3 µM)
[5]
  solubility kinetic at 2 h: 320 µM (≈ 114 µg/mL)
Listeria monocytogenes [6]
  MIC: 4 mg/L (≈ 11.3 µM)
Klebsiella pneumoniae [7]
  MBC: > 64 mg/L
Enterococcus faecalis [8]
  MBC: 8 mg/L (≈ 22.5 µM)
Enterococcus faecalis [9]
  MIC: 4 mg/L (≈ 11.3 µM)
Klebsiella pneumoniae [10]
  MIC: > 64 mg/L
Streptococcus pneumoniae [11]
  MBC: 8 mg/L (≈ 22.5 µM)
Staphylococcus aureus [12]
  MBC: 16 mg/L (≈ 45 µM)
Pseudomonas aeruginosa [13]
  MBC: > 64 mg/L
Staphylococcus aureus [14]
  MIC: 2 mg/L (≈ 5.63 µM)
Acinetobacter baumannii [15]
  MIC: 64 mg/L (≈ 180 µM)
Staphylococcus aureus [16]
  MIC: 2 mg/L (≈ 5.63 µM)
Streptococcus pneumoniae [17]
  MIC: 4 mg/L (≈ 11.3 µM)
Escherichia coli [18]
  MIC: > 64 mg/L
Staphylococcus aureus [19]
  MBC: 16 mg/L (≈ 45 µM)
Escherichia coli [20]
  MIC: 16 mg/L (≈ 45 µM)
Staphylococcus aureus [21]
  MBC: 4 mg/L (≈ 11.3 µM)
[22]
  MIC: 4 mg/L (≈ 11.3 µM)
Escherichia coli [23]
  MBC: 16 mg/L (≈ 45 µM)
Staphylococcus aureus [24]
  MIC: 4 mg/L (≈ 11.3 µM)
Acinetobacter baumannii [25]
  MBC: 64 mg/L (≈ 180 µM)
Streptococcus pneumoniae [26]
  MIC: 4 mg/L (≈ 11.3 µM)
Pseudomonas aeruginosa [27]
  MIC: > 64 mg/L
Escherichia coli [28]
  MBC: > 64 mg/L
Staphylococcus aureus [29]
  MIC: 1 mg/L (≈ 2.81 µM)
Enterococcus faecium
  MBC: 4 mg/L (≈ 11.3 µM)
Staphylococcus aureus [30]
  MBC: 4 mg/L (≈ 11.3 µM)
Staphylococcus aureus [31]
  MIC: 4 mg/L (≈ 11.3 µM)
Staphylococcus aureus [32]
  MIC: 4 mg/L (≈ 11.3 µM)

## C/C(=N\NC(=N)N)c1sc(-c2ccc(C#Cc3ccc(N)cc3)cc2)nc1C
Listeria monocytogenes [1]
  MBC: > 64 mg/L
Staphylococcus aureus [2]
  MBC: 8 mg/L (≈ 20.6 µM)
Staphylococcus aureus [3]
  MIC: 4 mg/L (≈ 10.3 µM)
[4]
  MBC: 2 mg/L (≈ 5.15 µM)
Staphylococcus aureus [33]
  Activity call: inactive
[5]
  solubility kinetic at 2 h: 105 µM (≈ 40.8 µg/mL)
Listeria monocytogenes [6]
  MIC: 32 mg/L (≈ 82.4 µM)
Klebsiella pneumoniae [7]
  MBC: > 64 mg/L
Enterococcus faecalis [8]
  MBC: > 64 mg/L
Enterococcus faecalis [9]
  MIC: > 64 mg/L
Klebsiella pneumoniae [10]
  MIC: > 64 mg/L
Streptococcus pneumoniae [11]
  MBC: 32 mg/L (≈ 82.4 µM)
Staphylococcus aureus [12]
  MBC: 16 mg/L (≈ 41.2 µM)
Pseudomonas aeruginosa [13]
  MBC: > 64 mg/L
Staphylococcus aureus [14]
  MIC: 8 mg/L (≈ 20.6 µM)
Acinetobacter baumannii [15]
  MIC: 64 mg/L (≈ 165 µM)
Staphylococcus aureus [16]
  MIC: 2 mg/L (≈ 5.15 µM)
Streptococcus pneumoniae [17]
  MIC: 32 mg/L (≈ 82.4 µM)
Escherichia coli [18]
  MIC: > 64 mg/L
Staphylococcus aureus [19]
  MBC: 32 mg/L (≈ 82.4 µM)
Escherichia coli [20]
  MIC: 16 mg/L (≈ 41.2 µM)
Staphylococcus aureus [21]
  MBC: 32 mg/L (≈ 82.4 µM)
[22]
  MIC: 2 mg/L (≈ 5.15 µM)
Escherichia coli [23]
  MBC: 16 mg/L (≈ 41.2 µM)
Staphylococcus aureus [24]
  MIC: 16 mg/L (≈ 41.2 µM)
Acinetobacter baumannii [25]
  MBC: > 64 mg/L
Streptococcus pneumoniae [26]
  MIC: 16 mg/L (≈ 41.2 µM)
Pseudomonas aeruginosa [27]
  MIC: > 64 mg/L
Escherichia coli [28]
  MBC: > 64 mg/L
Staphylococcus aureus [29]
  MIC: 16 mg/L (≈ 41.2 µM)
Enterococcus faecium
  MBC: 16 mg/L (≈ 41.2 µM)
Staphylococcus aureus [30]
  MBC: 16 mg/L (≈ 41.2 µM)
Staphylococcus aureus [31]
  MIC: 16 mg/L (≈ 41.2 µM)
Staphylococcus aureus [32]
  MIC: 4 mg/L (≈ 10.3 µM)
